Measured values: BindingDB's records for PubMed 7791071 (Rhone-Poulenc Rorer Central Research, 1995)
Where “and” joins values, the source holds several entries; their conditions need not be identical. Equal values may be shown once.

Target: T1, Cholecystokinin (Sus scrofa, UniProt P01356)
T1 sequence (P01356 whole entry): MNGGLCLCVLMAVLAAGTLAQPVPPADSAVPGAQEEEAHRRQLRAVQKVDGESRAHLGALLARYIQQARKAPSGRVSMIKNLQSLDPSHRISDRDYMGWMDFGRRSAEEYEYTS

Structure (SMILES) | Ki
Cc1cccc(NC(=O)N[C@H]2N=C(c3ccccc3)c3ccccc3N(C)C2=O)c1 | 7.2 nM and 4.8 nM
CSCC[C@H](NC(=O)[C@H](Cc1ccc(OS(=O)(=O)O)cc1)NC(=O)[C@@H](N)CC(=O)O)C(=O)NCC(=O)N[C@@H](Cc1c[nH]c2ccccc12)C(=O)N[C@@H](CCSC)C(=O)N[C@@H](CC(=O)O)C(=O)N[C@@H](Cc1ccccc1)C(N)=O [(3S)-3-[(2S)-2-[(2S)-2-{2-[(2S)-2-[(2S)-2-[(3S)-3-amino-3-formamidopropanoic acid]-3-[4-(sulfooxy)phenyl]propanamido]-4-(methylsulfanyl)butanamido]acetamido}-3-(1H-indol-3-yl)propanamido]-4-(methylsulfanyl)butanamido]-3-{[(1S)-1-carbamoyl-2-phenylethyl]carbamoyl}propanoic acid] | 0.43 nM and 1.1 nM
CC(Cc1c[nH]c2ccccc12)(NC(=O)OC1C2CC3CC(C2)CC1C3)C(=O)NCC(NC(=O)CCC(=O)O)c1ccccc1 (stereo unspecified) [NSC_108186] | 0.46 nM and 2 nM
CN1C(=O)[C@@H](NC(=O)c2cc3ccccc3[nH]2)N=C(c2ccccc2)c2ccccc21 [1H-Indole-2-carboxylic acid (1-methyl-2-oxo-5-phenyl-2,3-dihydro-1H-benzo[e][1,4]diazepin-3-yl)-amide: 0.1C4H10O. 0.15CH2Cl2] | 141 nM and 87 nM
CSCC[C@H](NC(=O)[C@H](Cc1c[nH]c2ccccc12)NC(=O)CCNC(=O)OC(C)(C)C)C(=O)N[C@@H](CC(=O)O)C(=O)N[C@@H](Cc1ccccc1)C(N)=O [CAS_5534-95-2] | 3.3 nM and 6 nM
O=C(NC(Cc1c[nH]c2ccccc12)C(=O)O)c1ccc(Cl)cc1 (stereo unspecified) | > 10000 nM
